Laboratory results as given in US5162328A, “N-[3-[2-(1H-imidazol-1-yl)ethoxy]phenyl]-4-(2-thienyl)-2-pyrimidinamine and pharmacologically acceptable salts” (American Cyanamid Company, priority 1991, dated 1992).
Where “and” joins values, the source holds several entries; their conditions need not be identical. Equal values may be shown once.

Tests used:
[1] = tested on: passive cutaneous anaphylaxis lesions in the rat; test: Rat Passive Cutaneous Anaphylaxis Assay (PCA); type: in vivo, rat (male Wistar strain); conditions: for Lesion Area (Low IgE) / Lesion Area (High IgE): mean ± SD
Protocol: Solutions made by dissolving 0.50 g in 100 ml of normal saline. Mouse monoclonal IgE (ICN Biochemicals) clone SPE-7 directed against DNP is subdivided into 50 ul aliquots and stored at -70° C. DNP-ovalbumin is made by reacting DNP sulfonic acid with ovalbumin dissolved in saline overnight at room temperature. The resulting solution is dialyzed extensively at 4 C to remove unreacted DNPsulfonic acid and stored as 1 mL aliquots of 100 mg/ml at -70° C. Male Wistar strain rats, certified viral free, weighing 250-300 g are obtained from Hilltop Laboratory Animals and housed, in accordance with AALAC standards, on site for at least one week before use. Forty-eight hours before challenge the rats are shaved on the dorsal surfaces and returned to the cages. Twenty-four hours before challenge the rats are given intradermal injections of 0.1 mL, one on each flank, of saline containing IgE at concentrations ranging from 1000 to 250 ng/mL. These injections give a local dose of 100 to 25 ng IgE. The IgE binds to specific receptors on mast cells in the skin. […] To the Evan's blue dye is added sufficient DNP-ovalbumin to make a 1 mg/ml solution. This allergen containing dye is injected intravenously via a tail vein into the rats at 10 ml/Kg. The Evans' blue binds to plasma albumin and remains in the vascular space under conditions of normal capillary permeability. The allergen, which can diffuse into the extravascular space, binds to the IgE on the surface of the cutaneous mast cells and initiates the immediate hypersensitivity response which leads to the release of histamine by intracellular granules of the mast cell. The histamine causes an increase in capillary permeability which allows plasma proteins including the dye tagged albumin to diffuse into the extracellular space resulting in a blue spot in the skin. The size of the lesion is proportional to the amounts of mediators released. This process reaches an optimum in 30 minutes. Thirty minutes after challenge the rats are euthanized by CO2. The skin is reflected from the back and the lesion areas estimated as the product of the largest diameter of the bluespot and the diameter perpendicular to it. A compound which is a mediator release inhibitor will reduce the spot area. The effectiveness of the compounds is determined by Analysis of Variance of the lesion areas grouped by IgE dose and compound. Compounds are considered active at the P<0.05 level. Table II contains the results of the experiments expressed as the areas of the lesions in mm^2. The control lesions for these experiments are also listed. Because more than one compound at a time is tested, some of the control values are repeated in the table. Table III contains the data expressed as a % of the appropriate control.

[2] = tested on: immunologically stimulated human basophils; test: Inhibition of histamine release from immunologically stimulated human basophils; type: cell-based; conditions: for IC50: Homo sapiens
Description: The bronchospasm of allergic asthma is a consequence of the release of mediators, such as histamine and slow-reacting substances from mast cells. The role of mediator release in the induction of an asthmatic attack has been fully reviewed and documented; see […]. and Austen, K. F., Bronchial Asthma Mechanisms and Therapeutics, E. B. Weiss, Editor, Little, Brown and Company, Boston, 163, (1976); Lichtenstein, L. M., Asthma-Physiology, Immunopharmacology and Treatment, Second International Symposium, L. M. Lichtenstein and K. F. Austen, Editors, Academic Press, New York, 51, (1979); and Bell, S. C., et al., Annular Reports in Medicinal Chemistry, 14, 51, H. J. Hess, Editor, Academic Press, New York, (1979). The novel compounds of this invention have been tested by the procedure of Lichtenstein, L. M. and Osler, A. G., J. Exp. […] Dissolve 140.3 g of sodium chloride, 7.45 g of Trizma-Tris Pre-Set, Reagent Grade, pH 7.6 at 25° C. (Sigma Chemical Co.) in sufficient water to give a final volume of 2 liters. (Sigma chemical Co.) (30 mg/ml) Made to 0.075M and 0.5M respectively, with calcium chloride dihydrate and magnesium chloride hexahydrate. A 10 ml portion of 10× Tris Buffer and 1.0 ml of human albumin are diluted to 100 ml with water. A 10 ml portion of 10× Tris Buffer, 1.0 ml of human albumin, 0.8 ml of calcium stock and 0.2 ml of magnesium stock are diluted to 100 ml with water. Behring Diagnostics (Generally used at 10 μg protein/ml final concentration). Strength 1:100 (w:v) allergenic extract, Hollister-Stier Labs. Generally this is diluted 1:1000 to 1:10,000 (considering the vial as stock). Interdermal solutions or intramuscular preparations for hyposensitization, Hollister-Stier Labs. The final concentrations used are on the order of 1 PNU/ml. Using four 20 ml heparinized tubes, […] of blood are withdrawn from subjects with known histamine release to anti-IgE, ragweed antigen or other specific allergen. These 80 ml of blood are mixed with 20 ml of saline containing 0.6 g of dextrose and 1.2 g of dextran. The blood is allowed to sediment at room temperature in two 50 ml polycarbonate centrifuge tubes until a sharp interface develops between the red cells and plasma (60-90 minutes). The plasma, containing the leukocytes, (top) layer from each tube, is withdrawn by pipet and transferred to 50 ml polycarbonate tubes. The plasma is centrifuged for 8 minutes at 110× G at 4° C. The supernatant is carefully poured off as completely as possible and the cell button is resuspended in 2-3 ml of Tris-A buffer using a siliconized Pasteur pipet. The resuspension is accomplished by drawing the liquid gently in an out of the pipet, with the tip below the liquid until an even suspension of cells is obtained. […]

[3] = 0.5 mg/kg PO 2 hrs, IgE 50 ng/site
[4] = compared with the two compounds of U.S. Pat. No. 4,788,195

IC50 [2] [µM] | Compound | Lesion Area (Low IgE) ([1]; 0.5 mg/kg PO 2 hrs, IgE 25 ng/site, dihydrochloride) | Lesion Area (High IgE) [1, 3] [mm^2] | Lesion Area (High IgE) ([1]; 0.5 mg/kg PO 2 hrs, IgE 100 ng/site, dihydrochloride) | % CONTROL (lesion area) ([1]; 0.5 mg/kg PO @ 2 hrs, dihydrochloride) | Lesion Area (Low IgE) ([1]; 1.0 mg/kg PO 2 hrs, IgE 25 ng/site) [mm^2] | Lesion Area (High IgE) ([1]; 1.0 mg/kg PO 2 hrs, IgE 50 ng/site) [mm^2] | % CONTROL (lesion area) ([1]; 1 mg/kg PO @ 2 hrs) [%] | Lesion Area (Low IgE) ([1]; 0.25 mg/kg PO 2 hrs, IgE 33 ng/site) [mm^2] | Lesion Area (High IgE) ([1]; 0.25 mg/kg PO 2 hrs, IgE 50 ng/site) [mm^2] | % CONTROL (lesion area) ([1]; 0.25 mg/kg PO @ 2 hrs) [%] | Lesion Area (Low IgE) ([1]; 0.5 mg/kg PO 2 hrs, IgE 33 ng/site) [mm^2] | % CONTROL (lesion area) ([1]; 0.5 mg/kg PO @ 2 hrs) [%] | Lesion Area (Low IgE) ([1]; 2.5 mg/kg PO 2 hrs, IgE 25 ng/site) [mm^2] | Lesion Area (High IgE) ([1]; 2.5 mg/kg PO 2 hrs, IgE 100 ng/site) [mm^2] | % CONTROL (lesion area) ([1]; 2.5 mg/kg PO @ 2 hrs) [%] | activity in rat PCA test (in words) [1, 4] | activity in basophil histamine release assay (in words) [2, 4]
0.9 | Cc1cc(Nc2nccc(-c3ccncc3)n2)ccc1N.Cl.Cl [Compound 2, 2-methyl-N^4-[4-(4-pyridinyl)-2-pyrimidinyl]-1,4-benzenediamine dihydrochloride, reference compound] | 135 ± 20 mm^2 and 97 ± 7 mm^2 and 105 ± 12 mm^2 | 157 ± 15 | 217 ± 35 mm^2 and 362 ± 62 mm^2 | 113.6% and 74.6% and 81% | 10 ± 15 | 123 ± 16 | 57.9 |  |  |  |  |  |  |  |  |  | 
0.2 ± 0.02 | CCN(CC)CCOc1ccc(Nc2nccc(-c3ccncc3)n2)cc1.Cl.Cl [Compound 3, N-[4-[2-(diethylamino)ethoxy]phenyl]-4-(4-pyridinyl)-2-pyrimidinamine dihydrochloride, reference compound] |  | 149 ± 22 |  |  |  |  |  | 108 ± 26 | 215 ± 24 | 45.1 | 68 ± 44 | 28.6 | 54 ± 38 | 105 ± 47 | 33.7 |  | 
 | c1cc(Nc2nccc(-c3cccs3)n2)cc(OCCn2ccnc2)c1 [N-[3-[2-(1H-imidazol-1-yl)ethoxy]phenyl]-4-(2-thienyl)-2-pyrimidinamine] |  |  |  |  |  |  |  |  |  |  |  |  |  |  |  | essentially equivalent high activity | essentially equivalent high activity
